Results published in patent US20240101540A1, “TARGETED PROTEIN DEGRADATION OF PARP14 FOR USE IN THERAPY” (Ribon Therapeutics, Inc., priority 2022, published 2024).
Where two headings read alike, the source gives them in different places.

Target: T1, catalytic domain of human PARP14 (residues 1611 to 1801) with NanoLuc tag (Homo sapiens, UniProt Q460N5)
T1 construct: expressed in transfected cells; host or cells: HEK-293T cells (ATCC), pcDNA3.1(-) vector
T1 sequence (Q460N5 1611-1801): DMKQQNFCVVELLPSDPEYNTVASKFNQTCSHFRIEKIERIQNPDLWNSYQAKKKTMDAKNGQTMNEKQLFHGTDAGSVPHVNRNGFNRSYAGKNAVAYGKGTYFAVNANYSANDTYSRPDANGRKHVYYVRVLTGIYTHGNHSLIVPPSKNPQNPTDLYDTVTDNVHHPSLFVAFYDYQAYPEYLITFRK
Experiment: NanoLuc assay for the degradation of PARP14 (NanoLuc-tagged PARP14 overexpressed in HEK-293T cells, 2 hours)
Assay type: cell-based
Conditions: Assay A (Example A): NanoLuc-tagged PARP14 degradation in HEK-293T cells

SMILES | DC50 (read-out: DC50) [nM] | DC50 [nM]
O=C1CCC(Nc2ccc(N3CC4CC(C3)N4CCN3CCC(COc4cc(F)c5c(=O)[nH]c(CSC6CCOCC6)nc5c4)CC3)cc2)C(=O)N1 (stereo not drawn) [Example 73, 3-((4-(6-(2-(4-(((5-fluoro-4-oxo-2-(((tetrahydro-2H-pyran-4-yl)thio)methyl)-3,4-dihydroquinazolin-7-yl)oxy)methyl)piperidin-1-yl)ethyl)-3,6-diazabicyclo[3.1.1]heptan-3-yl)phenyl)amino)piperidine-2,6-dione] | < 100 | –
Cn1nc(N2CCC(=O)NC2=O)c2ccc(C3CCN(CCN4CCC(COc5cc(F)c6c(=O)[nH]c(CSC7CCOCC7)nc6c5)CC4)CC3)cc21 [Example 74, 1-(6-(1-(2-(4-(((5-fluoro-4-oxo-2-(((tetrahydro-2H-pyran-4-yl)thio)methyl)-3,4-dihydroquinazolin-7-yl)oxy)methyl)piperidin-1-yl)ethyl)piperidin-4-yl)-1-methyl-1H-indazol-3-yl)dihydropyrimidine-2,4(1H,3H)-dione] | < 100 | –
Cn1nc(N2CCC(=O)NC2=O)c2ccc(N3CCN(CCN4CCC(COc5cc(F)c6c(=O)[nH]c(CSC7CCOCC7)nc6c5)CC4)CC3)cc21 [Example 75, 1-(6-(4-(2-(4-(((5-fluoro-4-oxo-2-(((tetrahydro-2H-pyran-4-yl)thio)methyl)-3,4-dihydroquinazolin-7-yl)oxy)methyl)piperidin-1-yl)ethyl)piperazin-1-yl)-1-methyl-1H-indazol-3-yl)dihydropyrimidine-2,4(1H,3H)-dione] | < 100 | –
O=C1CCC(Nc2ccc(O[C@@H]3C[C@@H]4CN(CCN5CCC(COc6cc(F)c7c(=O)[nH]c(CSC8CCOCC8)nc7c6)CC5)C[C@@H]4C3)cc2)C(=O)N1 (stereo partly drawn) [Example 76, 3-((4-(((3aR,51,6aS)-2-(2-(4-(((5-fluoro-4-oxo-2-(((tetrahydro-2H-pyran-4-yl)thio)methyl)-3,4-dihydroquinazolin-7-yl)oxy)methyl)piperidin-1-yl)ethyl)octahydrocyclopenta[c]pyrrol-5-yl)oxy)phenyl)amino)piperidine-2,6-dione] | < 100 | –
O=C1CCN(c2ccc(C3CCN(CCN4CCC(COc5cc(F)c6c(=O)[nH]c(CSC7CCOCC7)nc6c5)CC4)CC3)cc2)C(=O)N1 [Example 77, 1-(4-(1-(2-(4-(((5-fluoro-4-oxo-2-(((tetrahydro-2H-pyran-4-yl)thio)methyl)-3,4-dihydroquinazolin-7-yl)oxy)methyl)piperidin-1-yl)ethyl)piperidin-4-yl)phenyl)dihydropyrimidine-2,4(1H,3H)-dione] | < 100 | –
Cn1c(=O)n(C2CCC(=O)NC2=O)c2ccc(C3CCN(CCN4CCC(COc5cc(F)c6c(=O)[nH]c(CSC7CCOCC7)nc6c5)CC4)CC3)cc21 (stereo not drawn) [Example 78, 3-(5-(1-(2-(4-(((5-fluoro-4-oxo-2-(((tetrahydro-2H-pyran-4-yl)thio)methyl)-3,4-dihydroquinazolin-7-yl)oxy)methyl)piperidin-1-yl)ethyl)piperidin-4-yl)-3-methyl-2-oxo-2,3-dihydro-1H-benzo[d]imidazol-1-yl)piperidine-2,6-dione] | < 100 | –
O=C1CCC(N2C(=O)c3ccc(OC4CC(CN5CCC(COc6cc(F)c7c(=O)[nH]c(CSC8CCOCC8)nc7c6)CC5)C4)cc3C2=O)C(=O)N1 (stereo not drawn) [Example 79a, 2-(2,6-dioxopiperidin-3-yl)-5-((1r,3r)-3-((4-(((5-fluoro-4-oxo-2-(((tetrahydro-2H-pyran-4-yl)thio)methyl)-3,4-dihydroquinazolin-7-yl)oxy)methyl)piperidin-1-yl)methyl)cyclobutoxy)isoindoline-1,3-dione] | < 100 | –
O=C1CCC(Nc2ccc(OC3CC(N4CCC(COc5cc(F)c6c(=O)[nH]c(CSC7CCOCC7)nc6c5)CC4)C3)cc2)C(=O)N1 (stereo not drawn) [Example 81, 3-((4-(3-(4-(((5-fluoro-4-oxo-2-(((tetrahydro-2H-pyran-4-yl)thio)methyl)-3,4-dihydroquinazolin-7-yl)oxy)methyl)piperidin-1-yl)cyclobutoxy)phenyl)amino)piperidine-2,6-dione] | < 100 | –
O=C1CCC(Nc2ccc(N3CCN(CCN4CCC(COc5cc(F)c6c(=O)[nH]c(CCC7CCOCC7)nc6c5)CC4)CC3)cc2)C(=O)N1 (stereo not drawn) [Example 82, 3-((4-(4-(2-(4-(((5-fluoro-4-oxo-2-(2-(tetrahydro-2H-pyran-4-yl)ethyl)-3,4-dihydroquinazolin-7-yl)oxy)methyl)piperidin-1-yl)ethyl)piperazin-1-yl)phenyl)amino)piperidine-2,6-dione] | – | < 100
O=C1CCC(Nc2ccc(N3CCN(CCN4CCC(COc5cc(F)c6c(=O)[nH]c(CS[C@H]7CC[C@H](O)CC7)nc6c5)CC4)CC3)cc2)C(=O)N1 (stereo partly drawn) [Example 83, 3-((4-(4-(2-(4-(((5-fluoro-2-((((1r,4r)-4-hydroxycyclohexyl)thio)methyl)-4-oxo-3,4-dihydroquinazolin-7-yl)oxy)methyl)piperidin-1-yl)ethyl)piperazin-1-yl)phenyl)amino)piperidine-2,6-dione] | < 100 | –
O=C1CCC(Nc2ccc(CN3CCC(N4CCC(COc5cc(F)c6c(=O)[nH]c(CSC7CCOCC7)nc6c5)CC4)CC3)cc2)C(=O)N1 (stereo not drawn) [Example 84, 3-((4-((4-(((5-fluoro-4-oxo-2-(((tetrahydro-2H-pyran-4-yl)thio)methyl)-3,4-dihydroquinazolin-7-yl)oxy)methyl)-[1,4′-bipiperidin]-1′-yl)methyl)phenyl)amino)piperidine-2,6-dione] | < 100 | –
O=C1CCC(N2C(=O)c3ccc(N4CCC(N5CCN(Cc6cc(F)c7c(=O)[nH]c(CSC8CCOCC8)nc7c6)CC5)CC4)cc3C2=O)C(=O)N1 (stereo not drawn) [Example 85, 2-(2,6-dioxopiperidin-3-yl)-5-(4-(4-((5-fluoro-4-oxo-2-(((tetrahydro-2H-pyran-4-yl)thio)methyl)-3,4-dihydroquinazolin-7-yl)methyl)piperazin-1-yl)piperidin-1-yl)isoindoline-1,3-dione] | < 100 | –
O=C1CCC(Nc2ccc(N3CCC(N4CCN(CCc5cc(F)c6c(=O)[nH]c(CSC7CCOCC7)nc6c5)CC4)CC3)cc2)C(=O)N1 (stereo not drawn) [Example 86, 3-((4-(4-(4-(2-(5-fluoro-4-oxo-2-(((tetrahydro-2H-pyran-4-yl)thio)methyl)-3,4-dihydroquinazolin-7-yl)ethyl)piperazin-1-yl)piperidin-1-yl)phenyl)amino)piperidine-2,6-dione] | < 100 | –
O=C1CCC(Nc2ccc(OC3CCN(C4CCC(COc5cc(F)c6c(=O)[nH]c(CSC7CCOCC7)nc6c5)CC4)CC3)cc2)C(=O)N1 (stereo not drawn) [Example 87, 3-((4-((1-(4-(((5-fluoro-4-oxo-2-(((tetrahydro-2H-pyran-4-yl)thio)methyl)-3,4-dihydroquinazolin-7-yl)oxy)methyl)cyclohexyl)piperidin-4-yl)oxy)phenyl)amino)piperidine-2,6-dione] | < 100 | –
O=C1CCC(Nc2ccc(N3CCC(N4CC(N5CCC(COc6cc(F)c7c(=O)[nH]c(CSC8CCOCC8)nc7c6)CC5)C4)CC3)cc2)C(=O)N1 (stereo not drawn) [Example 88, 3-((4-(4-(3-(4-(((5-fluoro-4-oxo-2-(((tetrahydro-2H-pyran-4-yl)thio)methyl)-3,4-dihydroquinazolin-7-yl)oxy)methyl)piperidin-1I-yl)azetidin-1-yl)piperidin-1-yl)phenyl)amino)piperidine-2,6-dione] | < 100 | –
